Data reported in patent US8143243B2, “Compounds for the treatment of hepatitis C” (Bristol-Myers Squibb Company, priority 2007, dated 2012).
Read-outs that look alike come from different tables or passages of the source.

Assays:
[1] = target: T1, HCV NS5B (Hepatitis C virus genotype 1b, UniProt Q9WMX2); assay: HCV NS5B RdRp enzyme assay (standard / modified); type: biochemical
T1 construct: The protein was expressed with an 18 amino acid C-terminal truncation to enhance the solubility; made in house; host or cells: E. coli BL21 (DE3)
T1 sequence (Q9WMX2 2420-2992): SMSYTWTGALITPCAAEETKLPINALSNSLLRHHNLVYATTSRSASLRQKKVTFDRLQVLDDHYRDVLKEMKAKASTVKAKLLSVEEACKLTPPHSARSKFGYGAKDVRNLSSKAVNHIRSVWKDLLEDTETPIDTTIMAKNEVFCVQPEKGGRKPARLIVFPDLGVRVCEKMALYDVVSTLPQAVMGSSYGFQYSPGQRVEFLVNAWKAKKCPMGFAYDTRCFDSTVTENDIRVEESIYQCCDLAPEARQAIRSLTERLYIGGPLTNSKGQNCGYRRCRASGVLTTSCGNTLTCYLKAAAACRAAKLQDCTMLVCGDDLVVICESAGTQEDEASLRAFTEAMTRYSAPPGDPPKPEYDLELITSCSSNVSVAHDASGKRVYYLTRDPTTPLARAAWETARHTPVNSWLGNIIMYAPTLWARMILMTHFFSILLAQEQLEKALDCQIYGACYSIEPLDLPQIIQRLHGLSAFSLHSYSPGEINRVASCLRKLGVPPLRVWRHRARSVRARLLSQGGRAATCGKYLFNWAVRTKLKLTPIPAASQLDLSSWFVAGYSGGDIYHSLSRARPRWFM
How it was run: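 NS5B genotype 1b, 18-aa C-terminal truncation, E. coli-expressed; polyA template with biotinylated oligo-dT12 primer, 3H-UTP 0.29 μM, 30° C, SPA read-out in 20 mM Hepes pH 7.5, 2% DMSO. Standard: 28 nM enzyme, 6 nM template, 180 nM primer, 60 min; modified: 14 nM enzyme, 0.2 nM template, 20 nM bead-precaptured primer, 4 h. IC50 from seven concentrations.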

[2] = system: HCV replicon cells; assay: HCV replicon FRET / luciferase assay; type: cell-based; settings: Hepatitis C virus
How it was run: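 Replicon cells (with or without Renilla luciferase reporter) incubated with titrated compounds at 37 °C; Alamar blue read for cytotoxicity first. NS3 protease activity read kinetically with 20 μM EDANS/DABCYL FRET peptide in lysis reagent plus 150 mM NaCl (ex 340/em 490), or by Dual-Glo luciferase. EC50 = 50% signal reduction after protease-inhibitor background subtraction.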

[3] = HCV RdRp genotype 1b enzyme, read-out: IC50
[4] = HCV replicon cells, FRET or luciferase readout, read-out: EC50

Row | SMILES | IC50 [1, 3] [µM] | EC50 [2, 4] [µM] | IC50 [1] [µM] | EC50 [2] [µM]
1 | COc1ccc2c(c1)C=C(c1c(C(=O)N3CCCC(N(C)C)C3)cnn1C)Cn1c-2c(C2CCCCC2)c2ccc(C(=O)NS(=O)(=O)C(C)C)cc21 (stereo not drawn) | 0.001 to 0.5 | 0.001 to 0.5 | – | –
2 | COC[C@@H]1CN(C(=O)c2cnn(C(C)C)c2C2=Cc3cc(OC)ccc3-c3c(C4CCCCC4)c4ccc(C(=O)NS(=O)(=O)C(C)C)cc4n3C2)CCO1 | 0.001 to 0.5 | 0.001 to 0.5 | – | –
3 | COc1ccc2c(c1)C=C(c1c(C(=O)N3CC4CCC(C3)N4C)cnn1C)Cn1c-2c(C2CCCCC2)c2ccc(C(=O)NS(=O)(=O)C(C)C)cc21 | – | – | 0.001 to 0.5 | 0.001 to 0.5
4 | COc1ccc2c(c1)C=C(c1c(C(=O)N3C[C@@H](C)N(C)[C@@H](C)C3)cnn1CC(F)(F)F)Cn1c-2c(C2CCCCC2)c2ccc(C(=O)NS(=O)(=O)C(C)C)cc21 | 0.001 to 0.5 | 0.001 to 0.5 | – | –
5 | COc1ccc2c(c1)C=C(c1c(C(=O)N3CCOC(CN(C)C)C3)cnn1C)Cn1c-2c(C2CCCCC2)c2ccc(C(=O)NS(=O)(=O)N3CCOCC3)cc21 (stereo not drawn) | 0.001 to 0.5 | 0.001 to 0.5 | – | –
6 | COc1ccc2c(c1)C=C(c1c(C(=O)N3CCN4CCCC4C3)cnn1C)Cn1c-2c(C2CCCCC2)c2ccc(C(=O)NS(=O)(=O)C(C)C)cc21 (stereo not drawn) | 0.001 to 0.5 | 0.001 to 0.5 | – | –
7 | COC[C@@H]1CN(C(=O)c2cnn(CC(F)(F)F)c2C2=Cc3cc(OC)ccc3-c3c(C4CCCCC4)c4ccc(C(=O)NS(=O)(=O)C(C)C)cc4n3C2)CCO1 | 0.001 to 0.5 | 0.001 to 0.5 | – | –
8 | COc1ccc2c(c1)C=C(c1c(C(=O)N3[C@@H]4CC[C@H]3C[C@@](C)(O)C4)cnn1C(C)C)Cn1c-2c(C2CCCCC2)c2ccc(C(=O)NS(=O)(=O)C(C)C)cc21 | – | – | 0.001 to 0.5 | 0.001 to 0.5
9 | COC[C@@H]1CN(C(=O)c2cnn(C)c2C2=Cc3cc(OC)ccc3-c3c(C4CCCCC4)c4ccc(C(=O)NS(=O)(=O)C5CCC5)cc4n3C2)CCO1 | 0.001 to 0.5 | 0.001 to 0.5 | – | –
10 | CCN1C[C@@H]2C[C@H]1CN2C(=O)c1c(C(F)(F)F)nn(C)c1C1=Cc2cc(OC)ccc2-c2c(C3CCCCC3)c3ccc(C(=O)NS(=O)(=O)C(C)C)cc3n2C1 | 0.001 to 0.5 | 0.001 to 0.5 | – | –
11 | CCOC(=O)c1cnn(C)c1C1=Cc2cc(OC)ccc2-c2c(C3CCCCC3)c3ccc(C(=O)NS(=O)(=O)C(C)C)cc3n2C1 | 0.001 to 0.5 | 0.001 to 0.5 | – | –
12 | COc1ccc2c(c1)C=C(c1c(C(=O)N3CCOCC3)c(C)nn1C(C)C)Cn1c-2c(C2CCCCC2)c2ccc(C(=O)NS(=O)(=O)C(C)C)cc21 | 0.001 to 0.5 | 0.001 to 0.5 | – | –
13 | COc1ccc2c(c1)C=C(c1c(C(=O)N3C[C@@H](C)O[C@@H](C)C3)cnn1C)Cn1c-2c(C2CCCCC2)c2ccc(C(=O)NS(=O)(=O)CC(C)C)cc21 | 0.001 to 0.5 | 0.001 to 0.5 | – | –
14 | COc1ccc2c(c1)C=C(c1sccc1C(=O)N1C3CCC1CN(C)C3)Cn1c-2c(C2CCCCC2)c2ccc(C(=O)NS(=O)(=O)C(C)C)cc21 | – | – | 0.001 to 0.5 | 0.001 to 0.5
15 | COc1ccc2c(c1)C=C(c1c(C(=O)N3CCOCC3)cnn1C)Cn1c-2c(C2CCCCC2)c2ccc(C(=O)NS(=O)(=O)C(C)C)cc21 | 0.001 to 0.5 | 0.001 to 0.5 | – | –
16 | COC[C@@H]1CN(C(=O)c2cnn(C)c2C2=Cc3cc(OC)ccc3-c3c(C4CCCCC4)c4ccc(C(=O)NS(=O)(=O)C5CCCC5)cc4n3C2)CCO1 | 0.001 to 0.5 | 0.001 to 0.5 | – | –
17 | COc1ccc2c(c1)C=C(c1c(C(=O)N3C4COCC3COC4)cnn1C)Cn1c-2c(C2CCCCC2)c2ccc(C(=O)NS(=O)(=O)C(C)C)cc21 | – | – | 0.001 to 0.5 | 0.001 to 0.5
18 | COc1ccc2c(c1)C=C(c1c(C(=O)N3CCC(N4CCCC4)CC3)cnn1C)Cn1c-2c(C2CCCCC2)c2ccc(C(=O)NS(=O)(=O)N3CCOCC3)cc21 | 0.001 to 0.5 | > 0.5 | – | –
19 | COCCN(C(=O)c1cnn(C)c1C1=Cc2cc(OC)ccc2-c2c(C3CCCCC3)c3ccc(C(=O)NS(=O)(=O)N4CCOCC4)cc3n2C1)C(C)C | 0.001 to 0.5 | 0.001 to 0.5 | – | –
20 | CCn1nc(C)c(C(=O)N2C[C@@H](C)O[C@@H](C)C2)c1C1=Cc2cc(OC)ccc2-c2c(C3CCCCC3)c3ccc(C(=O)NS(=O)(=O)C(C)C)cc3n2C1 [drawing 580] | 0.001 to 0.5 | 0.001 to 0.5 | – | –
21 | COc1ccc2c(c1)C=C(c1c(C(=O)N3CCN(C)CC3)cnn1C)Cn1c-2c(C2CCCCC2)c2ccc(C(=O)NS(=O)(=O)N3CCOCC3)cc21 | 0.001 to 0.5 | 0.001 to 0.5 | – | –

Row | SMILES | IC50 [1, 3] [µM] | EC50 [2, 4] [µM] | IC50 [1] [µM] | EC50 [2] [µM]
22 | COc1ccc2c(c1)C=C(c1ocnc1C(=O)N1CCOCC1)Cn1c-2c(C2CCCCC2)c2ccc(C(=O)OC(C)(C)C)cc21 | > 0.04 | > 0.04 | – | –
23 | COC[C@@H]1CN(C(=O)c2cnn(C)c2C2=Cc3cc(OC)ccc3-c3c(C4CCCCC4)c4ccc(C(=O)NS(=O)(=O)N5CCOCC5)cc4n3C2)CCO1 | 0.001 to 0.5 | 0.001 to 0.5 | – | –
24 | COc1ccc2c(c1)C=C(c1c(C(=O)N3CCC(N4CCCC4)CC3)cnn1C)Cn1c-2c(C2CCCCC2)c2ccc(C(=O)NS(=O)(=O)C(C)C)cc21 | 0.001 to 0.5 | 0.001 to 0.5 | – | –
25 | COc1ccc2c(c1)C=C(c1c(C(=O)N3C4CCC3CN(C)C4)c(C)nn1C)Cn1c-2c(C2CCCCC2)c2ccc(C(=O)NS(=O)(=O)C(C)C)cc21 | – | – | 0.001 to 0.5 | 0.001 to 0.5
26 | CCN1C[C@@H]2C[C@H]1CN2C(=O)c1cnn(C)c1C1=Cc2cc(OC)ccc2-c2c(C3CCCCC3)c3ccc(C(=O)NS(=O)(=O)C4CCC4)cc3n2C1 | 0.001 to 0.5 | 0.001 to 0.5 | – | –
27 | COc1ccc2c(c1)C=C(c1c(C(=O)N(CC3CCCO3)C(C)C)cnn1C)Cn1c-2c(C2CCCCC2)c2ccc(C(=O)NS(=O)(=O)C(C)C)cc21 (stereo not drawn) | 0.001 to 0.5 | 0.001 to 0.5 | – | –
28 | COc1ccc2c(c1)C=C(c1c(C(=O)N3CCOCC3)c(C)nn1C)Cn1c-2c(C2CCCCC2)c2ccc(C(=O)NS(=O)(=O)C(C)C)cc21 | 0.001 to 0.5 | 0.001 to 0.5 | – | –
29 | COc1ccc2c(c1)C=C(c1c(C(=O)N3CCC(N(C)C)C3)cnn1C)Cn1c-2c(C2CCCCC2)c2ccc(C(=O)NS(=O)(=O)N3CCOCC3)cc21 (stereo not drawn) | 0.001 to 0.5 | 0.001 to 0.5 | – | –
30 | COc1ccc2c(c1)C=C(c1c(C(=O)N3CCCC(N(C)C)C3)cnn1C)Cn1c-2c(C2CCCCC2)c2ccc(C(=O)NS(=O)(=O)N3CCOCC3)cc21 (stereo not drawn) | 0.001 to 0.5 | 0.001 to 0.5 | – | –
31 | COc1ccc2c(c1)C=C(c1c(C(=O)N3C4COCC3COC4)cnn1C)Cn1c-2c(C2CCCCC2)c2ccc(C(=O)NS(=O)(=O)C3CCC3)cc21 | – | – | 0.001 to 0.5 | 0.001 to 0.5
32 | COc1ccc2c(c1)C=C(c1c(C(=O)N3CCCC4(CCNC4=O)C3)cnn1C)Cn1c-2c(C2CCCCC2)c2ccc(C(=O)NS(=O)(=O)N3CCOCC3)cc21 (stereo not drawn) | 0.001 to 0.5 | 0.001 to 0.5 | – | –
33 | CCn1ncc(C(=O)N2CCOCC2)c1C1=Cc2cc(OC)ccc2-c2c(C3CCCCC3)c3ccc(C(=O)NS(=O)(=O)N(C)C)cc3n2C1 | 0.001 to 0.5 | 0.001 to 0.5 | – | –
34 | COc1ccc2c(c1)C=C(c1c(C(=O)N3C4CCC3CN(C)C4)cnn1C)Cn1c-2c(C2CCCCC2)c2ccc(C(=O)NS(=O)(=O)N(C)C)cc21 | – | – | 0.001 to 0.5 | 0.001 to 0.5
35 | CCC(C)S(=O)(=O)NC(=O)c1ccc2c(C3CCCCC3)c3n(c2c1)CC(c1c(C(=O)N2CC(C)N(C)C(C)C2)cnn1C)=Cc1cc(OC)ccc1-3 (stereo not drawn) | 0.001 to 0.5 | 0.001 to 0.5 | – | –
36 | COC[C@@H]1CN(C(=O)c2cnn(C)c2C2=Cc3cc(OC)ccc3-c3c(C4CCCCC4)c4ccc(C(=O)NS(=O)(=O)C(C)C)cc4n3C2)CCO1 | 0.001 to 0.5 | 0.001 to 0.5 | – | –
37 | CCOC(=O)c1cnn(C)c1C1=Cc2cc(OC)ccc2-c2c(C3CCCCC3)c3ccc(C(=O)OC(C)(C)C)cc3n2C1 | > 0.04 | 0.001 to 0.5 | – | –
38 | COc1ccc2c(c1)C=C(c1c(C(=O)N3CCOCC3)cnn1C(C)C)Cn1c-2c(C2CCCCC2)c2ccc(C(=O)NS(=O)(=O)C(C)C)cc21 | 0.001 to 0.5 | 0.001 to 0.5 | – | –
39 | COc1ccc2c(c1)C=C(c1c(C(=O)N3C[C@@H](C)O[C@@H](C)C3)ccn1C(C)C)Cn1c-2c(C2CCCCC2)c2ccc(C(=O)NS(=O)(=O)C(C)C)cc21 | 0.001 to 0.5 | 0.001 to 0.5 | – | –
40 | COc1ccc2c(c1)C=C(c1c(C(=O)N3CCN(C)CC3)c(C(F)(F)F)nn1C)Cn1c-2c(C2CCCCC2)c2ccc(C(=O)NS(=O)(=O)C(C)C)cc21 | 0.001 to 0.5 | 0.001 to 0.5 | – | –
41 | CCN1C[C@@H]2C[C@H]1CN2C(=O)c1cnn(C)c1C1=Cc2cc(OC)ccc2-c2c(C3CCCCC3)c3ccc(C(=O)NS(=O)(=O)C(C)C)cc3n2C1 | 0.001 to 0.5 | 0.001 to 0.5 | – | –
42 | COc1ccc2c(c1)C=C(c1c(C(=O)N3CCOCC3)c(C)nn1C)Cn1c-2c(C2CCCCC2)c2ccc(C(=O)NS(=O)(=O)CC(C)C)cc21 | 0.001 to 0.5 | 0.001 to 0.5 | – | –
